Measured values as given in patent US10100064B2, “Purine inhibitors of human phosphatidylinositol 3-kinase delta” (Merck Sharp & Dohme Corp., priority 2014, dated 2018).

Experiments:
PI3Kalpha = molecular target: T1, PI3Kalpha (Homo sapiens, UniProt P42336); experiment: HTRF PI3K biochemical assay, alpha isoform (selectivity versus delta); conditions: relative ratio PI3K-alpha IC50 value / PI3K-delta IC50 value
T1 construct: purchased Upstate; Millipore 14-602
From the text: (§1) HTRF PI3K Biochemical Assay to Measure Intrinsic Potency of Compound Inhibitors
(§2) The PI3-Kinase biochemical assays were developed to measure the intrinsic potency and compound dependent inhibition of the alpha, beta, delta, and gamma PI3K isoform enzymes. This assay was developed and further optimized from a kit produced by Upstate (Millipore catalog #33-047) and has been configured for HTS and SAR screening. Briefly, this procedure exploits the exquisite specificity and high affinity binding of […] phosphatidyl(3,4,5)triphosphate (PIP3) to the GRP1 pleckstrin homology (PH) domain to generate the signal. In the absence of PIP3, an HTRF (Homogeneous Time-Resolved Fluorescence energy transfer) complex is formed consisting of europium (Eu)-labeled anti-GST, GSTtagged GRP1-PH domain, biotin-PIP3 and streptavidin conjugated APC. The native PIP3 produced by PI3-Kinase activity disrupts in a competitive manner the biotin-PIP3 from the PH domain, resulting in the loss of energy transfer (HTRF complex) and a decrease in the signal. The format of this assay is the same for all 4 isoforms of PI3K; the differences lie in the concentration of enzyme used to achieve robust assay window. The alpha, beta, and delta assays are run at 0.5, 1, and 0.3 nM enzymes and the gamma assay is run at 5 nM enzyme. The ATP concentration is 100 uM in the alpha, beta, and delta assays and 50 uM ATP in the gamma assay. All reactions are run at 5 uM PIP2.
(§3) Compounds are serially diluted (3-fold in 100% DMSO) across a 384-well polypropylene source plated from column 3 to column 12 and column 13 to column 22, to yield 10 concentration dose response for each test compound. Columns 1, 2, 23 and 24 contain either only DMSO or pharmacological known control inhibitor. Once titrations are made, 2.5 nL of the compounds on 384 well plates are reformatted and transferred by acoustic dispense in quadruplicates to a 1536 assay plate (Greiner) to assay across all four PI3K isoform enzymes.
(§4) The PI3-Kinase biochemical assay was optimized using the HTRF kit provided by Upstate (Millipore). The assay kit contains six reagents: 1) 4× Reaction Buffer; 2) native PIP2 (substrate); 3) Stop (EDTA); 4) Detection Mix A (Streptavidin-APC); 5) Detection Mix B (Eu-labeled Anti-GST plus GST-tagged PH-domain); 6) Detection Mix C. In addition, the following items were obtained or purchased; PI3Kinase (alpha 14-602, beta 14-603, gamma 14-558 and delta 14-604 from Upstate; Millipore), dithiothreitol (Sigma, D-5545), Adenosine-5′ triphosphate (InVitrogen, Cat#AS001A), native PIP3 (PI(3,4,5)P3, diC8, H^+, CELLSIGNALS, INC. Cat #907) DMSO (Sigma, 472301).
(§5) PI3Kinase Reaction Buffer is prepared by dilution the stock 1:4 with de-ionized water. DTT, PIP2 and Biotin-PIP3 were added to 1536 assay plate at a final concentration of 5 mM, […] 25 nM on the day of use. Enzyme addition and compound pre-incubation are initiated by the addition of 1.25 ul of PI3K (at twice its final concentration) in the 1× reaction buffer to all wells using a BioRaptor. Plates are incubated at room temperature for 15 minutes. Reactions are initiated by addition of 1.25 ul of 2× substrate solution (PIP2 and ATP in 1× reaction buffer) using BioRaptor. Plates are incubated in humidified chamber at room temperature for one hour. Reactions are quenched by addition of 0.625 uL of stop solution to all wells using the BioRaptor. The quenched reactions are then processed to detect product formation by adding 0.625 uL of Detection Solution to all wells using the BioRaptor (Detection mix C, Detection Mix A, and Detection Mix B combined together in an 18:1:1 ratio prepared 2 hours prior to use). Following a one hour incubation in the dark, the HTRF signal is measured on the Envision plate reader set for 330 nm excitation and dual emission detection at […]. […]

PI3Kdelta = molecular target: T2, PI3Kdelta (Homo sapiens, UniProt O00329); experiment: HTRF PI3K biochemical assay, delta isoform; conditions: 0.3 nM enzyme, 100 uM ATP, 5 uM PIP2, form screened (Neutral or TFA salt) given per compound
T2 construct: purchased Upstate; Millipore 14-604
From the text: as §1, §2, §3, §4, §5

T2 sequence (O00329 whole entry, canonical isoform): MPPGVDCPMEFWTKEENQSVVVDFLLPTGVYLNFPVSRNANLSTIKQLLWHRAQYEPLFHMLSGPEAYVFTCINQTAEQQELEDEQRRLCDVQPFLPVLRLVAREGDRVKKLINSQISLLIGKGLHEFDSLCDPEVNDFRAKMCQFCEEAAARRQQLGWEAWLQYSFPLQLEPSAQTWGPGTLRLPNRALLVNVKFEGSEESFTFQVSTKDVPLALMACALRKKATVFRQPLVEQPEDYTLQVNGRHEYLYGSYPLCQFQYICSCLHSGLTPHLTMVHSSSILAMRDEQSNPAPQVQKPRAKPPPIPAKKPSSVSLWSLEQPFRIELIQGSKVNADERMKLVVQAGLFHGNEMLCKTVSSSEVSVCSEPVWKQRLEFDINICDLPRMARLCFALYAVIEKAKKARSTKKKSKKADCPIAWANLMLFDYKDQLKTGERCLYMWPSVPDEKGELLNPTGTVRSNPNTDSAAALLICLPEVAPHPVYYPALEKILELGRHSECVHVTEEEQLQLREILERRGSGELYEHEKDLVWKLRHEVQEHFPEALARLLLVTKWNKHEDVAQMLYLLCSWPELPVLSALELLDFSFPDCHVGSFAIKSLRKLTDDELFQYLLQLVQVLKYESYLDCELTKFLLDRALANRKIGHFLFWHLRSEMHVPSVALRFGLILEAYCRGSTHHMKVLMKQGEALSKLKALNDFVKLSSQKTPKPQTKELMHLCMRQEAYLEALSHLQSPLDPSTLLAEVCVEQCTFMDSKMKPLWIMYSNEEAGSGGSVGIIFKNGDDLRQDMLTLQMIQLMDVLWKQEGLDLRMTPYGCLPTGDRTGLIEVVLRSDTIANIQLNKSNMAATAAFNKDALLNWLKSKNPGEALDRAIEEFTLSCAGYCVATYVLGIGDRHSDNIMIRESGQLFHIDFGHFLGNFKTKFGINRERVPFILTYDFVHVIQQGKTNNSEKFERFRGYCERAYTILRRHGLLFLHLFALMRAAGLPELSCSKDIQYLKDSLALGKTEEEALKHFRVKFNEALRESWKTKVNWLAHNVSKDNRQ
T2 sequence (P27986 whole entry partner, canonical isoform): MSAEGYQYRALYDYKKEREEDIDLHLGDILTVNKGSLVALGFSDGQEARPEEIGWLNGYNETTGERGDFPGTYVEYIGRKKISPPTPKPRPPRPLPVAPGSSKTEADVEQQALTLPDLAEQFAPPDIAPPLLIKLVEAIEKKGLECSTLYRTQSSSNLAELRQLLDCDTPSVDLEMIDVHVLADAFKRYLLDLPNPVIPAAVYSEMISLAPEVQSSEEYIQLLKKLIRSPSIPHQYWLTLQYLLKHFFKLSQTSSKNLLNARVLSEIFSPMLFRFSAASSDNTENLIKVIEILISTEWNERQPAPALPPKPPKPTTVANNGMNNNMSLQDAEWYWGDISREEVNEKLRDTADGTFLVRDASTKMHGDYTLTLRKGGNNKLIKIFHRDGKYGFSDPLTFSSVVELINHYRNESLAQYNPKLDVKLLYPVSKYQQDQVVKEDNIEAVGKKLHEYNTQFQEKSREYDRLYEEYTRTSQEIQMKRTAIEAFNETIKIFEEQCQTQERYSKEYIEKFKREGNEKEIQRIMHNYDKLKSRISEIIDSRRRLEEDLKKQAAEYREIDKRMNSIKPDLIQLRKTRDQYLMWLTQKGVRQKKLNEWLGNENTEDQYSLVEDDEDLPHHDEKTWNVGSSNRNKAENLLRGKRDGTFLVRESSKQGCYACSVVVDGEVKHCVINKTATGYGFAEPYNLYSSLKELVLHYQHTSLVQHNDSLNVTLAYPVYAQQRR
T1 sequence (P42336 whole entry, canonical isoform): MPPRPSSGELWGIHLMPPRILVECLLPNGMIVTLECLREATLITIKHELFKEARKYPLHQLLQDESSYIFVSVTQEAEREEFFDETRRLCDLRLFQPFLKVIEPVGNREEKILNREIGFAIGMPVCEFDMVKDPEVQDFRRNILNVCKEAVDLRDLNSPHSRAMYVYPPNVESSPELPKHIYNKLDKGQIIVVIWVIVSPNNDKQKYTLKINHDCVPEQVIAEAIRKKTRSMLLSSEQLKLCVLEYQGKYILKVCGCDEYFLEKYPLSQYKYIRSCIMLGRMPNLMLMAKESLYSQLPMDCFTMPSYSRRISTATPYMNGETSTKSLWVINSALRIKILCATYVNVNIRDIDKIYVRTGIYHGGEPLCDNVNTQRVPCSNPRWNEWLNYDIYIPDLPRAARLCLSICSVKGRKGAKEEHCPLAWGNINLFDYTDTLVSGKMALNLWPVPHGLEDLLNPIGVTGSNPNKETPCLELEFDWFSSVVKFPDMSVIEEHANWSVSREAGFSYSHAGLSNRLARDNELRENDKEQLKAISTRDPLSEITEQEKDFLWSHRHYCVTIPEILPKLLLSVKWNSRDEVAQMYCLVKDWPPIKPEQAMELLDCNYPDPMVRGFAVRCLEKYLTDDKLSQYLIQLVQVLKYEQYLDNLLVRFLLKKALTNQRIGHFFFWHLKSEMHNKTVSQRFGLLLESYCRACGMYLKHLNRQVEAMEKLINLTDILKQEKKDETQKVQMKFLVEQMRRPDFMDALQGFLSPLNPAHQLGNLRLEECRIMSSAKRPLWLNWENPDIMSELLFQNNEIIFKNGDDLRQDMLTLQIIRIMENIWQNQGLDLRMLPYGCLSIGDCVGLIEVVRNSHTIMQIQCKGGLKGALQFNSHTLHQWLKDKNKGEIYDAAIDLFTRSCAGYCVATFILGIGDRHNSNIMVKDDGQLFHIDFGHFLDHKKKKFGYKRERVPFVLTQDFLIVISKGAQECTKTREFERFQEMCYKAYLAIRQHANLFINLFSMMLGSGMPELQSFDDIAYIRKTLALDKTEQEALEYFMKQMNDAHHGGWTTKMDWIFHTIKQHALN
T1 sequence (P27986 whole entry partner, canonical isoform): as the sequence (P27986 whole entry partner, canonical isoform) above

Selectivity versus PI3Kalpha (PI3Kalpha) | IC50 (PI3Kdelta) | SMILES
>10 | 10 nM | CCn1c(-c2cnc(C)nc2)nc2c(NC3CCn4cnc(C(C)C)c4C3)ncnc21 (single isomer, unassigned) [Compound 6-1, (S or R)-9-ethyl-N-[1-(1-methylethyl)-5,6,7,8-tetrahydroimidazo[1,5-a]pyridin-7-yl]-8-(2-methylpyrimidin-5-yl)-9H-purin-6-amine]
>10 | 384 nM | CCn1c(-c2cnc(C)nc2)nc2c(NC3CCc4ncn(C(C)C)c4C3)ncnc21 (single isomer, unassigned) [Compound 5-16, (S or R)-9-ethyl-N-[1-(1-methylethyl)-4,5,6,7-tetrahydro-1H-benzimidazol-6-yl]-8-(2-methylpyrimidin-5-yl)-9H-purin-6-amine]
>10 | < 1 nM | CCn1c(-c2cnc(C)nc2)nc2c(NC3CCc4nc(Cl)n(C5CC5)c4C3)ncnc21 (racemic) [Compound 5-12, (S and R)-N-(2-chloro-1-cyclopropyl-4,5,6,7-tetrahydro-1H-benzimidazol-6-yl)-9-ethyl-8-(2-methylpyrimidin-5-yl)-9H-purin-6-amine]
>10 | 9 nM | CCn1c(-c2cnc(C)nc2)nc2c(NC3Cc4c(ncn4C(C)C)C(C)C3)ncnc21 (single isomer, unassigned) [Compound 5-17, 9-ethyl-N-[(4(S or R), 6(S or R)-4-methyl-1-(1-methylethyl)-4,5,6,7-tetrahydro-1H-benzimidazol-6-yl]-8-(2-methylpyrimidin-5-yl)-9H-purin-6-amine]
>10 | 5.5 nM | CCn1c(-c2cnc(C)nc2)nc2c(NC3CCc4ncn(C5CC5)c4C3)ncnc21 (single isomer, unassigned) [Compound 5-1, (S or R)-N-(1-cyclopropyl-4,5,6,7-tetrahydro-1H-benzimidazol-6-yl)-9-ethyl-8-(2-methylpyrimidin-5-yl)-9H-purin-6-amine]
>10 | 4.2 nM | CCn1c(-c2cnc(C)nc2)nc2c(NC3CCc4ncn(C(C)C)c4C3)ncnc21 (single isomer, unassigned) [Compound 5-15, (S or R)-9-ethyl-N-[1-(1-methylethyl)-4,5,6,7-tetrahydro-1H-benzimidazol-6-yl]-8-(2-methylpyrimidin-5-yl)-9H-purin-6-amine]

Further lines, the compound ahead of its results:

SMILES | Selectivity versus PI3Kalpha (PI3Kalpha) | IC50 (PI3Kdelta)
CCn1c(-c2ccc(C(F)(F)F)cc2)nc2c(NC3CCc4[nH]nc(C(C)C)c4C3)ncnc21 (single isomer, unassigned) [Compound 2-7, (S or R)-9-ethyl-N-[3-(1-methylethyl)-4,5,6,7-tetrahydro-1H-indazol-5-yl]-8-[4-(trifluoromethyl)phenyl]-9H-purin-6-amine] | >10 | 1.7 nM
CCn1c(-c2cnc(C)nc2)nc2c(NC3CCc4nnc(-c5ccccc5)n4C3)ncnc21 (single isomer, unassigned) [Compound 1-3, (S or R)-9-ethyl-8-(2-methylpyrimidin-5-yl)-N-[3-phenyl-5,6,7,8-tetrahydro[1,2,4]triazolo[4,3-a]pyridin-6-yl]-9H-purin-6-amine] | >10 | 5.9 nM
CCn1c(-c2cnc(C)nc2)nc2c(NC3CCc4c(c(C(C)C)nn4C(=O)OC)C3)ncnc21 (single isomer, unassigned) [Compound 2-19, (S or R)-methyl 5-{[9-ethyl-8-(2-methylpyrimidin-5-yl)-9H-purin-6-yl]amino}-3-(1-methylethyl)-4,5,6,7-tetrahydro-1H-indazole-1-carboxylate] | >10 | 1 nM
CCn1c(-c2ccc(C(F)(F)F)cc2)nc2c(NC3CCc4nnc(C5CC5)n4C3)ncnc21 (single isomer, unassigned) [Compound 1-28, (S or R)-N-(3-cyclopropyl-5,6,7,8-tetrahydro[1,2,4]triazolo[4,3-a]pyridin-6-yl)-9-ethyl-8-[4-(trifluoromethyl)phenyl]-9H-purin-6-amine] | >10 | 1.4 nM
CCn1c(-c2cnn(-c3ccccc3)c2)nc2c(NC3CCc4nnc(C5CC5)n4C3)ncnc21 (racemic) [Compound 1-10, (S and R)-N-(3-cyclopropyl-5,6,7,8-tetrahydro[1,2,4]triazolo[4,3-a]pyridin-6-yl)-9-ethyl-8-(1-phenyl-1H-pyrazol-4-yl)-9H-purin-6-amine] | >10 | < 1 nM
CCn1c(-c2cnc(C)nc2)nc2c(NC3CCc4c(c(C(C)C)nn4S(C)(=O)=O)C3)ncnc21 (racemic) [Compound 2-23, (S and R)-9-ethyl-N-[3-(1-methylethyl)-1-(methylsulfonyl)-4,5,6,7-tetrahydro-1H-indazol-5-yl]-8-(2-methylpyrimidin-5-yl)-9H-purin-6-amine] | >10 | < 1 nM
CCn1c(-c2cnc(C)nc2)nc2c(NC3CCc4c(c(C(C)C)nn4C(=O)CC(C)(C)C)C3)ncnc21 (racemic) [Compound 2-15, (S and R)-N-[1-(3,3-dimethylbutanoyl)-3-(1-methylethyl)-4,5,6,7-tetrahydro-1H-indazol-5-yl]-9-ethyl-8-(2-methylpyrimidin-5-yl)-9H-purin-6-amine] | >10 | 78 nM
CCOC(=O)n1nc(C(C)C)c2c1CCC(Nc1ncnc3c1nc(-c1cnc(C)nc1)n3CC)C2 (racemic) [Compound 2-17, (S and R)-ethyl 5-{[9-ethyl-8-(2-methylpyrimidin-5-yl)-9H-purin-6-yl]amino}-3-(1-methylethyl)-4,5,6,7-tetrahydro-1H-indazole-1-carboxylate] | >10 | 2.3 nM
CCc1cnc2n1CC(Oc1ncnc3c1nc(-c1cnc(C)nc1)n3CC)C2 (racemic) [Compound 4-5, (S and R)-9-ethyl-6-[(3-ethyl-6,7-dihydro-5H-pyrrolo[1,2-a]imidazol-6-yl)oxy]-8-(2-methylpyrimidin-5-yl)-9H-purine] | >10 | 550 nM
CCn1c(-c2cnc(C)nc2)nc2c(NC3CCc4c(c(C5CC5)nn4C(=O)OC(C)(C)C)C3)ncnc21 (racemic) [Compound 2-1, (S and R)-tert-butyl 3-cyclopropyl-5-{[9-ethyl-8-(2-methylpyrimidin-5-yl)-9H-purin-6-yl]amino}-4,5,6,7-tetrahydro-1H-indazole-1-carboxylate] | >10 | < 1 nM
CCn1c(-c2cnc(C)nc2)nc2c(OC3CCc4nnc(C(C)C)n4C3)ncnc21 (single isomer, unassigned) [Compound 1-34, (S or R)-9-ethyl-6-{[3-(1-methylethyl)-5,6,7,8-tetrahydro[1,2,4]triazolo[4,3-a]pyridin-6-yl]oxy}-8-(2-methylpyrimidin-5-yl)-9H-purine] | >10 | 4.1 nM
CCn1c(-c2ccc(OC(F)F)nc2)nc2c(NC3CCc4nnc(C5CC5)n4C3)ncnc21 (racemic) [Compound 1-14, (S and R)-N-(3-cyclopropyl-5,6,7,8-tetrahydro[1,2,4]triazolo[4,3-a]pyridin-6-yl)-8-[6-(difluoromethoxy)pyridin-3-yl]-9-ethyl-9H-purin-6-amine] | >10 | 2.1 nM
